# From PubChem BioAssay (NCI)
#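 Method: 48-hour compound exposure of cells in 96-well plates, five concentrations, linear interpolation of endpoints. GI50 = concentration required for 50% inhibition of growth. TGI is the concentration that stops growth completely.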
# Columns and labels:
# Test in all cases: NCI tumour cell line growth inhibition, 48 h
# NCI-H226 lung = test system: NCI-H226 lung
# UACC-62 melanoma = test system: UACC-62 melanoma
# OVCAR-4 ovarian = test system: OVCAR-4 ovarian
# MALME-3M melanoma = test system: MALME-3M melanoma
# RXF 393 renal = test system: RXF 393 renal
# HOP-62 NSCLC = test system: HOP-62 NSCLC
# SR leukemia = test system: SR leukemia
# TK-10 renal = test system: TK-10 renal
# SF-268 CNS = test system: SF-268 CNS
# CAKI-1 renal = test system: CAKI-1 renal
# SNB-75 CNS = test system: SNB-75 CNS
# NCI/ADR-RES ovarian = test system: NCI/ADR-RES ovarian
# SK-OV-3 ovarian = test system: SK-OV-3 ovarian
# NCI-H23 lung = test system: NCI-H23 lung
# LOX IMVI melanoma = test system: LOX IMVI melanoma
# HL-60(TB) leukemia = test system: HL-60(TB) leukemia
# CCRF-CEM leukemia = test system: CCRF-CEM leukemia
# HS 578T breast = test system: HS 578T breast
# SK-MEL-28 melanoma = test system: SK-MEL-28 melanoma
# A549 NSCLC = test system: A549 NSCLC
# EKVX NSCLC = test system: EKVX NSCLC
# UO-31 renal = test system: UO-31 renal
# IGROV1 ovarian = test system: IGROV1 ovarian
# SF-295 CNS = test system: SF-295 CNS
# A498 renal = test system: A498 renal
# BT-549 breast = test system: BT-549 breast
# MCF7 breast = test system: MCF7 breast
# K-562 leukemia = test system: K-562 leukemia
# RPMI-8226 leukemia = test system: RPMI-8226 leukemia
# SN12C renal = test system: SN12C renal
# OVCAR-3 ovarian = test system: OVCAR-3 ovarian
# UACC-257 melanoma = test system: UACC-257 melanoma
# SF-539 CNS = test system: SF-539 CNS
# M14 melanoma = test system: M14 melanoma
# HCT-116 colon = test system: HCT-116 colon
# HOP-92 NSCLC = test system: HOP-92 NSCLC
# ACHN renal = test system: ACHN renal
# OVCAR-5 ovarian = test system: OVCAR-5 ovarian
# SK-MEL-5 melanoma = test system: SK-MEL-5 melanoma
# HCT-15 colon = test system: HCT-15 colon
# HT29 colon = test system: HT29 colon
# T-47D breast = test system: T-47D breast
# MOLT-4 leukemia = test system: MOLT-4 leukemia
# KM12 colon = test system: KM12 colon
# DU-145 prostate = test system: DU-145 prostate
# MDA-MB-468 breast = test system: MDA-MB-468 breast
# MDA-MB-435 = test system: MDA-MB-435
# OVCAR-8 ovarian = test system: OVCAR-8 ovarian
# U251 CNS = test system: U251 CNS
# COLO 205 colon = test system: COLO 205 colon
# PC-3 prostate = test system: PC-3 prostate
# 786-0 renal = test system: 786-0 renal
# MDA-MB-231 breast = test system: MDA-MB-231 breast
# SK-MEL-2 melanoma = test system: SK-MEL-2 melanoma
# NCI-H460 lung = test system: NCI-H460 lung
# SNB-19 CNS = test system: SNB-19 CNS
# NCI-H522 lung = test system: NCI-H522 lung
smiles,measurement,setting,value
CCOc1ccc(/C=N/NC(=O)Cn2nc(Cc3ccc([N+](=O)[O-])cc3)c3onc(C)c3c2=O)cc1,GI50,NCI-H226 lung,2.43 µM
same,TGI,NCI-H226 lung,6.99 µM
same,GI50,UACC-62 melanoma,12.9 µM
same,TGI,UACC-62 melanoma,93.9 µM
same,GI50,OVCAR-4 ovarian,3.26 µM
same,TGI,OVCAR-4 ovarian,> 100 µM
same,GI50,MALME-3M melanoma,6.71 µM
same,TGI,MALME-3M melanoma,44.9 µM
same,GI50,RXF 393 renal,2.57 µM
same,TGI,RXF 393 renal,7.35 µM
same,GI50,HOP-62 NSCLC,2.55 µM
same,TGI,HOP-62 NSCLC,6.99 µM
same,GI50,SR leukemia,> 100 µM
same,TGI,SR leukemia,> 100 µM
same,GI50,TK-10 renal,2.41 µM
same,TGI,TK-10 renal,6.62 µM
same,GI50,SF-268 CNS,5.75 µM
same,TGI,SF-268 CNS,68.5 µM
same,GI50,CAKI-1 renal,3.08 µM
same,TGI,CAKI-1 renal,12.3 µM
same,GI50,SNB-75 CNS,1.6 µM
same,TGI,SNB-75 CNS,7.67 µM
same,GI50,NCI/ADR-RES ovarian,6.53 µM
same,TGI,NCI/ADR-RES ovarian,> 100 µM
same,GI50,SK-OV-3 ovarian,8.24 µM
same,TGI,SK-OV-3 ovarian,27.2 µM
same,GI50,NCI-H23 lung,7.06 µM
same,TGI,NCI-H23 lung,35.1 µM
same,GI50,LOX IMVI melanoma,5.34 µM
same,TGI,LOX IMVI melanoma,> 100 µM
same,GI50,HL-60(TB) leukemia,> 100 µM
same,TGI,HL-60(TB) leukemia,> 100 µM
same,GI50,CCRF-CEM leukemia,> 100 µM
same,TGI,CCRF-CEM leukemia,> 100 µM
same,GI50,HS 578T breast,2.84 µM
same,TGI,HS 578T breast,8.23 µM
same,GI50,SK-MEL-28 melanoma,6.14 µM
same,TGI,SK-MEL-28 melanoma,> 100 µM
same,GI50,A549 NSCLC,4.19 µM
same,TGI,A549 NSCLC,> 100 µM
same,GI50,EKVX NSCLC,> 100 µM
same,TGI,EKVX NSCLC,> 100 µM
same,GI50,UO-31 renal,3.45 µM
same,TGI,UO-31 renal,> 100 µM
same,GI50,IGROV1 ovarian,27.6 µM
same,TGI,IGROV1 ovarian,> 100 µM
same,GI50,SF-295 CNS,3.26 µM
same,TGI,SF-295 CNS,10.8 µM
same,GI50,A498 renal,4.88 µM
same,TGI,A498 renal,21 µM
same,GI50,BT-549 breast,20.3 µM
same,TGI,BT-549 breast,> 100 µM
same,GI50,MCF7 breast,> 100 µM
same,TGI,MCF7 breast,> 100 µM
same,GI50,K-562 leukemia,> 100 µM
same,TGI,K-562 leukemia,> 100 µM
same,GI50,RPMI-8226 leukemia,> 100 µM
same,TGI,RPMI-8226 leukemia,> 100 µM
same,GI50,SN12C renal,> 100 µM
same,TGI,SN12C renal,> 100 µM
same,GI50,OVCAR-3 ovarian,9.59 µM
same,TGI,OVCAR-3 ovarian,> 100 µM
same,GI50,UACC-257 melanoma,69.9 µM
same,TGI,UACC-257 melanoma,> 100 µM
same,GI50,SF-539 CNS,3.1 µM
same,TGI,SF-539 CNS,10.1 µM
same,GI50,M14 melanoma,28.2 µM
same,TGI,M14 melanoma,> 100 µM
same,GI50,HCT-116 colon,3.21 µM
same,TGI,HCT-116 colon,> 100 µM
same,GI50,HOP-92 NSCLC,2.41 µM
same,TGI,HOP-92 NSCLC,8.23 µM
same,GI50,ACHN renal,3.33 µM
same,TGI,ACHN renal,11 µM
same,GI50,OVCAR-5 ovarian,> 100 µM
same,TGI,OVCAR-5 ovarian,> 100 µM
same,GI50,SK-MEL-5 melanoma,6.85 µM
same,TGI,SK-MEL-5 melanoma,> 100 µM
same,GI50,HCT-15 colon,> 100 µM
same,TGI,HCT-15 colon,> 100 µM
same,GI50,HT29 colon,> 100 µM
same,TGI,HT29 colon,> 100 µM
same,GI50,T-47D breast,2.57 µM
same,TGI,T-47D breast,> 100 µM
same,GI50,MOLT-4 leukemia,> 100 µM
same,TGI,MOLT-4 leukemia,> 100 µM
same,GI50,KM12 colon,> 100 µM
same,TGI,KM12 colon,> 100 µM
same,GI50,DU-145 prostate,11.2 µM
same,TGI,DU-145 prostate,> 100 µM
same,GI50,MDA-MB-468 breast,3.35 µM
same,TGI,MDA-MB-468 breast,20 µM
same,GI50,MDA-MB-435,> 100 µM
same,TGI,MDA-MB-435,> 100 µM
same,GI50,OVCAR-8 ovarian,10.1 µM
same,TGI,OVCAR-8 ovarian,> 100 µM
same,GI50,U251 CNS,2.3 µM
same,TGI,U251 CNS,7.06 µM
same,GI50,COLO 205 colon,> 100 µM
same,TGI,COLO 205 colon,> 100 µM
same,GI50,PC-3 prostate,6.35 µM
same,TGI,PC-3 prostate,> 100 µM
same,GI50,786-0 renal,2.47 µM
same,TGI,786-0 renal,6.64 µM
same,GI50,MDA-MB-231 breast,2.3 µM
same,TGI,MDA-MB-231 breast,6.44 µM
same,GI50,SK-MEL-2 melanoma,13.8 µM
same,TGI,SK-MEL-2 melanoma,36.9 µM
same,GI50,NCI-H460 lung,4.37 µM
same,TGI,NCI-H460 lung,> 100 µM
same,GI50,SNB-19 CNS,3.41 µM
same,TGI,SNB-19 CNS,14.1 µM
same,GI50,NCI-H522 lung,3.26 µM
same,TGI,NCI-H522 lung,32.5 µM
